In PMC12785453, “Oral Fluid Concentrations and Pharmacological Effects of Clephedrone and Methylone in Humans” (International Journal of Molecular Sciences, 2025):

Test system: healthy male participants
Assay: Subjective effects, visual analog scales (VAS), methylone trial
Type: in vivo, humans
Procedure: Methylone pharmacology was evaluated in a study designed as a randomized, double-blind, placebo-controlled, crossover clinical trial. Four pilot studies were conducted administering methylone at oral doses of 50 (n = 3), 100 (n = 6), 150 (n = 5), and 200 mg (n = 7). Participants attended 3 experimental sessions separated by a one-week wash-out period and received two doses of methylone (one dose per experimental session) compared to placebo, except in the last pilot study in which participants received one dose of methylone, compared to MDMA and placebo. However, in this manuscript, only the results corresponding to the highest methylone doses (n = 12; 150 and 200 mg; mean dose = 179.2 mg) are presented, to enable comparison with clephedrone self-administration. Participants were recruited by word of mouth in the volunteer database of the clinical pharmacology unit.
Methylone hydrochloride of high purity in powder form was acquired from LGC Standards (Teddington, UK) for the controlled study. The Pharmacy Department of the Hospital Universitari Germans Trias i Pujol was responsible for manufacturing, storing, and dispensing identical and opaque soft gelatin capsules containing 50 mg of methylone or a placebo (maltodextrin). Treatment consisted of 5 capsules that combined methylone and/or a placebo to reach the target dose. Details can be found in the previous article.
Subjective effects were evaluated with visual analog scales (VAS), the short form of the Addiction Research Center Inventory (ARCI), and the Evaluation of Subjective Effects of Substances with Abuse Potential questionnaire (VESSPA-SSE). In addition, the Sensitivity to Drug Reinforcement Questionnaire (SDRQ) and a pharmacological identification class questionnaire were used in the controlled study administering methylone.
VAS encompassed several adjectives that participants had to rate from “not at all” (0 mm) to “extremely” (100 mm) according to their sensations. This scale included 28 items: intensity, stimulated, high, good effects, bad effects, liking, changes in distances, changes in colors, changes in shapes, changes in lights, hallucinations (seeing lights or spots), hallucinations (seeing things, animals, insects, or people), changes in hearing, hallucinations (hearing sounds or voices), drowsiness, concentration, dizziness, confusion, different or changed body feeling, unreal body feeling, different surroundings, unreal surroundings, open, trust, feeling close to others, I want to be with other people, I want to hug someone, sexual desire, and sexual arousal.
Participants included in the naturalistic clephedrone study completed VAS at baseline, 0.50, 1, 1.5, 2, 3, 4, and 5 h, and ARCI and VESSPA at baseline, 1, 2, 3, 4, and 5 h after self-administering clephedrone. In the controlled study, VAS was performed at baseline and 0.25, 0.50, 0.75, 1, 1.5, 2, 3, 4, 6, 8, 10, and 24 h, and ARCI and VESSPA at baseline and 1, 2, 3, 4, 6, 8, and 10 h after administering methylone. Participants completed SDRQ and VAS sexual desire and arousal at baseline, 1 and 10 h, and the pharmacological class identification questionnaire at 8 h.
For statistical analysis, values of physiological (SBP, DBP, HR, and T) and subjective effects (VAS, ARCI, and VESSPA-SSE) were baseline–adjusted. Maximum effects (Emax) and the time needed to reach maximum effects (Tmax) were determined, and the area under the curve up to 5 h (AUC0–5h) for clephedrone and up to 6 h (AUC0–6h) for methylone was calculated using the trapezoidal rule. Emax and AUC values are presented as mean ± standard deviation, whereas Tmax is presented in median (range).
To find possible significant changes through the time course compared to baseline, a Dunnett multiple comparison test was carried out to compare each time point with baseline in both drug conditions. […]

[1] = 150 or 200 mg oral, n=12, listed as methylone
[2] = AUC0–6h, 150 or 200 mg oral, n=12

CNC(C)C(=O)c1ccc2c(c1)OCO2 (stereo not shown) [Methylone, 3,4-methylenedioxy-N-methylcathinone]
VAS Bad effects Emax (150 or 200 mg oral, n=12): 0.17 ± 0.58 mm | VAS Changes in colors Emax (150 or 200 mg oral, n=12): 0.00 ± 0.00 mm | VAS Changes in colors Tmax (150 or 200 mg oral, n=12): 0.0 (0.0–0.0) h | VAS Changes in distances Emax (150 or 200 mg oral, n=12): 1.58 ± 5.48 mm | VAS Changes in distances Tmax (150 or 200 mg oral, n=12): 0.0 (0.0–1.0) h | VAS Changes in hearing Emax (150 or 200 mg oral, n=12): 0.42 ± 1.44 mm | VAS Changes in hearing Tmax (150 or 200 mg oral, n=12): 0.0 (0.0–0.5) h | VAS Changes in lights Emax (150 or 200 mg oral, n=12): 0.00 ± 0.00 mm | VAS Changes in lights Tmax (150 or 200 mg oral, n=12): 0.0 (0.0–0.0) h | VAS Concentration Emax (150 or 200 mg oral, n=12): 2.50 ± 4.21 mm | VAS Confusion Emax (150 or 200 mg oral, n=12): 1.33 ± 2.57 mm | VAS Different or changed body feeling Emax (150 or 200 mg oral, n=12): 12.25 ± 10.68 mm | VAS Different surroundings Emax (150 or 200 mg oral, n=12): 0.33 ± 1.15 mm | VAS Dizziness Emax (150 or 200 mg oral, n=12): 3.08 ± 5.33 mm | VAS Drowsiness Emax (150 or 200 mg oral, n=12): 10.17 ± 16.16 mm | VAS Feeling close to others Emax (150 or 200 mg oral, n=12): 15.92 ± 19.97 mm | VAS Good effects Emax (150 or 200 mg oral, n=12): 29.75 ± 21.60 mm | VAS High Emax (150 or 200 mg oral, n=12): 26.67 ± 18.12 mm | VAS I want to be with other people Emax (150 or 200 mg oral, n=12): 17.42 ± 20.62 mm | VAS I want to hug someone Emax (150 or 200 mg oral, n=12): 15.33 ± 21.76 mm | VAS Intensity Emax (150 or 200 mg oral, n=12): 25.17 ± 18.95 mm | VAS Liking Emax (150 or 200 mg oral, n=12): 30.33 ± 23.26 mm | VAS Open Emax (150 or 200 mg oral, n=12): 15.67 ± 19.21 mm | VAS Sexual arousal Emax (150 or 200 mg oral, n=12): 0.50 ± 1.45 mm | VAS Sexual desire Emax (150 or 200 mg oral, n=12): 1.08 ± 2.07 mm | VAS Trust Emax (150 or 200 mg oral, n=12): 15.92 ± 20.07 mm | VAS Unreal body feeling Emax (150 or 200 mg oral, n=12): 0.00 ± 0.00 mm | VAS Unreal surroundings Emax (150 or 200 mg oral, n=12): 0.00 ± 0.00 mm | VAS Feeling close to others Emax [1]: > 15 mm | VAS Good effects Emax [1]: exceeding 20 mm | VAS High Emax [1]: exceeding 20 mm | VAS I want to be with other people Emax [1]: > 15 mm | VAS I want to hug someone Emax [1]: > 15 mm | VAS Intensity Emax [1]: exceeding 20 mm | VAS Liking Emax [1]: exceeding 20 mm | VAS Open Emax [1]: > 15 mm | VAS Stimulated Emax [1]: exceeding 20 mm | VAS Trust Emax [1]: > 15 mm | VAS Bad effects AUC0-5/6 h [2]: 0.06 ± 0.22 mm·h | VAS Changes in colors AUC0-5/6 h [2]: 0.00 ± 0.00 mm·h | VAS Changes in distances AUC0-5/6 h [2]: 0.72 ± 2.49 mm·h | VAS Changes in hearing AUC0-5/6 h [2]: 0.10 ± 0.36 mm·h | VAS Changes in lights AUC0-5/6 h [2]: 0.00 ± 0.00 mm·h | VAS Concentration AUC0-5/6 h [2]: 1.95 ± 3.58 mm·h | VAS Confusion AUC0-5/6 h [2]: 1.46 ± 3.43 mm·h | VAS Different or changed body feeling AUC0-5/6 h [2]: 7.96 ± 8.16 mm·h | VAS Different surroundings AUC0-5/6 h [2]: 0.17 ± 0.58 mm·h | VAS Dizziness AUC0-5/6 h [2]: 3.31 ± 6.88 mm·h | VAS Drowsiness AUC0-5/6 h [2]: 19.98 ± 33.41 mm·h | VAS Feeling close to others AUC0-5/6 h [2]: 14.20 ± 16.71 mm·h | VAS Good effects AUC0-5/6 h [2]: 26.38 ± 22.79 mm·h | VAS High AUC0-5/6 h [2]: 22.85 ± 18.54 mm·h | VAS I want to be with other people AUC0-5/6 h [2]: 16.94 ± 19.79 mm·h | VAS I want to hug someone AUC0-5/6 h [2]: 14.27 ± 19.51 mm·h | VAS Intensity AUC0-5/6 h [2]: 20.30 ± 18.35 mm·h | VAS Liking AUC0-5/6 h [2]: 28.45 ± 24.43 mm·h | VAS Open AUC0-5/6 h [2]: 15.04 ± 17.47 mm·h | VAS Sexual arousal AUC0-5/6 h [2]: 2.50 ± 7.23 mm·h | VAS Sexual desire AUC0-5/6 h [2]: 5.42 ± 10.33 mm·h | VAS Stimulated AUC0-5/6 h [2]: 20.30 ± 18.35 mm·h | VAS Trust AUC0-5/6 h [2]: 15.08 ± 18.74 mm·h | VAS Unreal body feeling AUC0-5/6 h [2]: 0.00 ± 0.00 mm·h | VAS Unreal surroundings AUC0-5/6 h [2]: 0.00 ± 0.00 mm·h | Time of peak pharmacological effects (oral): 0.75–1 h
